Results on 61 compounds are retold here after patent US20120157401A1, “METHODS FOR TREATING NEUROFIBROMATOSIS” (PTC Therapeutics, Inc., priority 2009, published 2012).

The test system of one assay is hypoxia-inducible endogenous VEGF expression. Briefly: Hypoxia-inducible endogenous VEGF expression ELISA in HeLa cells, dose-response EC50 (Table 3). Format: cell-based, human. As to conditions: HeLa cells, hypoxic conditions (1% O2), 24-48 hours, VEGF in conditioned media; read-out: ELISA EC50. How it is done:
The ability of the Compounds to modulate hypoxia-inducible endogenous VEGF expression may be analyzed as follows. VEGF protein levels may be monitored by an ELISA assay (R&D Systems). Briefly, HeLa cells may be cultured for 24-48 hours under hypoxic conditions (1% O2, 5% CO2, balanced with nitrogen) in the presence or absence of a Compound. The conditioned media may then be assayed by ELISA, and the concentration of VEGF calculated from the standard ELISA curve of each assay.
A dose-response analysis may be performed using the ELISA assay and conditions described above. The conditions for the dose-response ELISA are analogous to those described above. A series of, e.g., seven different concentrations may be analyzed. In parallel, a dose-response cytotoxicity assay may be performed using Cell Titer Glo (Promega) under the same conditions as the ELISA to ensure that the inhibition of VEGF expression was not due to the cytotoxicity.
On the technique in general: An ELISA detects its analyte on a solid surface through an enzyme-linked reagent.
For orientation: EC50 means the concentration that produces a half-maximal response. In the case of `O=C(Oc1ccc(Cl)cc1)N1CCc2c([nH]c3ccc(Br)cc23)C1c1ccc(C(F)(F)F)cc1` (stereo not shown) [Compound 570], the half-maximal effective concentration (EC50) is less than 0.008 µM.

Take `CC(C)c1ccc(C2c3[nH]c4ccc(Br)cc4c3CCN2C(=O)Oc2ccc(Cl)cc2)cc1` (stereo not shown) [Compound 572]: the EC50 is less than 0.008 µM.

For the compound `COC(=O)c1ccc(C2c3[nH]c4ccc(Cl)cc4c3CCN2C(=O)Oc2ccc(F)cc2)cc1` (stereo not shown) [Compound 579], the EC50 is less than 0.008 µM.

The assay is the same for the next values; noted with them: Homo sapiens, HeLa, read-out: ELISA EC50 μM.
With `CN(C)CC(=O)Nc1ccc(C2c3[nH]c4ccc(Cl)cc4c3CCN2C(=O)Oc2ccc(Cl)cc2)cc1` (stereo not shown) [Compound 491], the EC50 lay in the range of 0.04 to 0.2 µM.

For `CN(C)CCCOc1ccc(C2c3[nH]c4ccc(Cl)cc4c3CCN2C(=O)Oc2ccccc2)cc1` (stereo not shown) [Compound 493], the EC50 was in the range of 0.04 to 0.2 µM.

With `COc1ccc(OC(=O)N2CCc3c([nH]c4ccc(Cl)cc34)C2c2ccc(OCCCN(C)C)cc2)cc1` (stereo not shown) [Compound 501], the EC50 lay within 0.04 to 0.2 µM.

Regarding `Cc1ccc(OC(=O)N2CCc3c([nH]c4ccc(Cl)cc34)C2c2ccc(OCCCN(C)C)cc2)cc1` (stereo not shown) [Compound 502], the concentration for a half-maximal effect (EC50) was 0.04 to 0.2 µM.

For the compound `O=C1NC2CSC(CCCCC(=O)OCCOc3ccc(C4c5[nH]c6ccc(Cl)cc6c5CCN4C(=O)Oc4ccc(Cl)cc4)cc3)C2N1` (stereo not shown) [Compound 544], the EC50 is less than 0.008 µM.

For the compound `CC(=O)N1CCN(CC(O)COc2ccc(C3c4[nH]c5ccc(Cl)cc5c4CCN3C(=O)Oc3ccc(F)cc3)cc2)CC1` (stereo not shown) [Compound 637], the EC50 was less than 0.008 µM.

For `O=C(Oc1ccc(F)cc1)N1CCc2c([nH]c3ccc(Cl)cc23)C1c1ccc(OCC(O)CN2CCOCC2)cc1` (stereo not shown) [Compound 638], the EC50 was less than 0.008 µM.

`O=C(Oc1ccc(Cl)cc1)N1CCc2c([nH]c3ccc(Cl)cc23)C1c1ccc(OCCCCN2CCCC2)cc1` (stereo not shown) [Compound 698]: the EC50 fell in the range of 0.008 to 0.04 µM.

In the case of `O=C(Oc1ccc(Cl)cc1)N1CCc2c([nH]c3ccc(Cl)cc23)C1c1ccc(OCCCCNCCO)cc1` (stereo not shown) [Compound 699], the EC50 lay in the range of 0.008 to 0.04 µM.

For the compound `CC(C)NCCCCOc1ccc(C2c3[nH]c4ccc(Cl)cc4c3CCN2C(=O)Oc2ccc(Cl)cc2)cc1` (stereo not shown) [Compound 700], the EC50 is 0.008 to 0.04 µM.

As to `COCCCNCCCCOc1ccc(C2c3[nH]c4ccc(Cl)cc4c3CCN2C(=O)Oc2ccc(Cl)cc2)cc1` (stereo not shown) [Compound 701], the EC50 was 0.008 to 0.04 µM.

Regarding `O=C(Oc1ccc(Cl)cc1)N1CCc2c([nH]c3ccc(Cl)cc23)C1c1ccc(OCCCCN2CCOCC2)cc1` (stereo not shown) [Compound 702], the EC50 lay in the range of 0.008 to 0.04 µM.

On to `O=C(Oc1ccc(Cl)cc1)N1CCc2c([nH]c3ccc(Cl)cc23)C1c1ccc(OCCCCN2CCCCC2)cc1` (stereo not shown) [Compound 703], for which the EC50 fell in the range of 0.008 to 0.04 µM.

As to `CN1CCN(CCCCOc2ccc(C3c4[nH]c5ccc(Cl)cc5c4CCN3C(=O)Oc3ccc(Cl)cc3)cc2)CC1` (stereo not shown) [Compound 704], the EC50 is 0.04 to 0.2 µM.

The same assay, now with this note: Homo sapiens; HeLa cells, hypoxic conditions (1% O2), 24-48 hours, VEGF in conditioned media; read-out: ELISA EC50.
With `CC(C)C(=O)Nc1ccc(C2c3[nH]c4ccc(Cl)cc4c3CCN2C(=O)Oc2ccc(Cl)cc2)cc1` (stereo not shown) [Compound 482], the EC50 fell in the range of 0.04 to 0.2 µM.

Consider `CC(C)OC(=O)Nc1ccc(C2c3[nH]c4ccc(Cl)cc4c3CCN2C(=O)Oc2ccc(Cl)cc2)cc1` (stereo not shown) [Compound 489], for which the EC50 lay in the range of 0.04 to 0.2 µM.

For `C=CC(=O)Nc1ccc(C2c3[nH]c4ccc(Cl)cc4c3CCN2C(=O)Oc2ccc(Cl)cc2)cc1` (stereo not shown) [Compound 500], the EC50 was in the range of 0.04 to 0.2 µM.

For the compound `O=C(O)c1ccc(C2c3[nH]c4ccc(Br)cc4c3CCN2C(=O)Oc2ccc(Cl)cc2)cc1` (stereo not shown) [Compound 519], the EC50 was 0.2 to 1 µM.

Regarding `O=C(Oc1ccc(Cl)cc1)N1CCc2c([nH]c3ccc(Cl)cc23)C1c1ccc(OCCO)cc1` (stereo not shown) [Compound 571], the EC50 was in the range of 0.2 to 1 µM.

Regarding `O=C(Oc1ccc(F)cc1)N1CCc2c([nH]c3ccc(Cl)cc23)C1c1ccc(O)cc1` (stereo not shown) [Compound 575], the EC50 lay within 0.2 to 1 µM.

For the compound `O=C(Oc1ccc(F)cc1)Oc1ccc(C2c3[nH]c4ccc(Cl)cc4c3CCN2C(=O)Oc2ccc(F)cc2)cc1` (stereo not shown) [Compound 576], the EC50 was 0.04 to 0.2 µM.

On to `O=C(Oc1ccc(Cl)cc1)N1CCc2c([nH]c3ccc(Cl)cc23)C1c1ccc(O)cc1` (stereo not shown) [Compound 577], for which the EC50 is 0.04 to 0.2 µM.

As for `COC(=O)c1ccc(C2c3[nH]c4ccc(Cl)cc4c3CCN2C(=O)Oc2ccc(Cl)cc2)cc1` (stereo not shown) [Compound 580], the EC50 was less than 0.008 µM.

As to `O=C(O)c1ccc(C2c3[nH]c4ccc(Cl)cc4c3CCN2C(=O)Oc2ccc(F)cc2)cc1` (stereo not shown) [Compound 581], the EC50 was greater than 1 µM.

On to `COc1ccc(C2c3[nH]c4ccc(Cl)cc4c3CCN2C(=O)Oc2ccccc2Cl)cc1` (stereo not shown) [Compound 587], for which the EC50 lay within 0.04 to 0.2 µM.

In the case of `O=C(Oc1ccccc1Cl)N1CCc2c([nH]c3ccc(Cl)cc23)C1c1ccc(F)cc1` (stereo not shown) [Compound 588], the EC50 was 0.04 to 0.2 µM.

Consider `O=C(Oc1ccccc1Cl)N1CCc2c([nH]c3ccc(Cl)cc23)C1c1ccc(Cl)cc1` (stereo not shown) [Compound 589], for which the EC50 lay within 0.04 to 0.2 µM.

With `COC(=O)c1ccc(C2c3[nH]c4ccc(Cl)cc4c3CCN2C(=O)Oc2ccccc2Cl)cc1` (stereo not shown) [Compound 590], the EC50 was 0.008 to 0.04 µM.

Turning to `COC(=O)c1ccc(C2c3[nH]c4ccc(Br)cc4c3CCN2C(=O)Oc2ccc(Cl)cc2)cc1` (stereo not shown) [Compound 591], the EC50 was less than 0.008 µM.

Turning to `COC(=O)c1ccc(C2c3[nH]c4ccc(Br)cc4c3CCN2C(=O)Oc2ccc(F)cc2)cc1` (stereo not shown) [Compound 592], the EC50 is less than 0.008 µM.

For `COC(=O)c1ccc(C2c3[nH]c4ccc(Br)cc4c3CCN2C(=O)Oc2ccccc2Cl)cc1` (stereo not shown) [Compound 593], the EC50 lay within 0.008 to 0.04 µM.

Regarding `O=C(Oc1ccccc1Cl)N1CCc2c([nH]c3ccc(Cl)cc23)C1c1ccc(C(F)(F)F)cc1` (stereo not shown) [Compound 594], the EC50 is 0.04 to 0.2 µM.

As to `COc1ccc(C2c3[nH]c4ccc(OC)cc4c3CCN2C(=O)Oc2ccc(Cl)cc2)cc1` (stereo not shown) [Compound 614], the EC50 lay in the range of 0.2 to 1 µM.

As to `COc1ccc(C2c3[nH]c4ccc(OCc5ccccc5)cc4c3CCN2C(=O)Oc2ccc(Cl)cc2)cc1` (stereo not shown) [Compound 616], the EC50 lay in the range of 0.2 to 1 µM.

Regarding `O=C(Oc1ccc(Cl)cc1)N1CCc2c([nH]c3ccc(Cl)cc23)C1c1ccc(OCCCI)cc1` (stereo not shown) [Compound 617], the concentration giving a half-maximal response (EC50) lay within 0.008 to 0.04 µM.

With `O=C(Oc1ccccc1)N1CCc2c([nH]c3ccc(Cl)cc23)C1c1ccc(OCC(O)CO)cc1` (stereo not shown) [Compound 626], the EC50 fell in the range of 0.008 to 0.04 µM.

As for `O=C(Oc1ccc(F)cc1)N1CCc2c([nH]c3ccc(Cl)cc23)C1c1ccc(OCC(O)CO)cc1` (stereo not shown) [Compound 627], the concentration giving a half-maximal response (EC50) is less than 0.008 µM.

Take `O=C(Oc1ccccc1Cl)N1CCc2c([nH]c3ccc(Cl)cc23)C1c1ccc(OCC(O)CO)cc1` (stereo not shown) [Compound 628]: the EC50 is 0.04 to 0.2 µM.

As to `O=C(Oc1ccc(Cl)cc1)N1CCc2c([nH]c3ccc(Cl)cc23)C1c1ccc(OCC(O)CO)cc1` (stereo not shown) [Compound 629], the EC50 was less than 0.008 µM.

As for `O=C(Oc1ccc(Br)cc1)N1CCc2c([nH]c3ccc(Cl)cc23)C1c1ccc(OCC(O)CO)cc1` (stereo not shown) [Compound 630], the EC50 is less than 0.008 µM.

Turning to `Cc1ccc(OC(=O)N2CCc3c([nH]c4ccc(Cl)cc34)C2c2ccc(OCC(O)CO)cc2)cc1` (stereo not shown) [Compound 631], the EC50 was less than 0.008 µM.

As for `O=C(Oc1ccc([N+](=O)[O-])cc1)N1CCc2c([nH]c3ccc(Cl)cc23)C1c1ccc(OCC(O)CO)cc1` (stereo not shown) [Compound 632], the EC50 is 0.008 to 0.04 µM.

Turning to `COc1ccc(OC(=O)N2CCc3c([nH]c4ccc(Cl)cc34)C2c2ccc(OCC(O)CO)cc2)cc1` (stereo not shown) [Compound 635], the EC50 is 0.008 to 0.04 µM.

In the case of `O=C(Oc1ccc(Cl)cc1)N1CCc2c([nH]c3ccc(Cl)cc23)C1c1ccc(OCCCCCl)cc1` (stereo not shown) [Compound 660], the EC50 was less than 0.008 µM.

As to `COCCOCCOc1ccc(C2c3[nH]c4ccc(Cl)cc4c3CCN2C(=O)Oc2ccccc2)cc1` (stereo not shown) [Compound 670], the EC50 was less than 0.008 µM.

As for `COCCOCCOc1ccc(C2c3[nH]c4ccc(Cl)cc4c3CCN2C(=O)Oc2ccc(F)cc2)cc1` (stereo not shown) [Compound 673], the EC50 was in the range of 0.008 to 0.04 µM.

On to `COCCOCCOc1ccc(C2c3[nH]c4ccc(Cl)cc4c3CCN2C(=O)Oc2ccccc2Cl)cc1` (stereo not shown) [Compound 674], for which the EC50 lay within 0.008 to 0.04 µM.

As to `COCCOCCOc1ccc(C2c3[nH]c4ccc(Cl)cc4c3CCN2C(=O)Oc2ccc(Cl)cc2)cc1` (stereo not shown) [Compound 675], the EC50 is 0.008 to 0.04 µM.

Turning to `COCCOCCOc1ccc(C2c3[nH]c4ccc(Cl)cc4c3CCN2C(=O)Oc2ccc(C)cc2)cc1` (stereo not shown) [Compound 677], the EC50 lay in the range of 0.008 to 0.04 µM.

For the compound `COCCOCCOc1ccc(C2c3[nH]c4ccc(Cl)cc4c3CCN2C(=O)Oc2ccc(OC)cc2)cc1` (stereo not shown) [Compound 678], the EC50 is 0.04 to 0.2 µM.

For the compound `COCCOCCOc1ccc(C2c3[nH]c4ccc(Cl)cc4c3CCN2C(=O)Oc2ccc(Br)cc2)cc1` (stereo not shown) [Compound 680], the EC50 is less than 0.008 µM.

With `COCCOCCOc1ccc(C2c3[nH]c4ccc(Cl)cc4c3CCN2C(=O)Oc2ccc([N+](=O)[O-])cc2)cc1` (stereo not shown) [Compound 681], the EC50 lay in the range of 0.008 to 0.04 µM.

For `O=C(Oc1ccc(Cl)cc1)N1CCc2c([nH]c3ccc(Cl)cc23)C1c1ccc(OCCCCn2ccnc2)cc1` (stereo not shown) [Compound 705], the EC50 is 0.008 to 0.04 µM.

For `O=C(Oc1ccc(Cl)cc1)N1CCc2c([nH]c3ccc(Cl)cc23)C1c1ccc(OCCCCn2cncn2)cc1` (stereo not shown) [Compound 706], the EC50 was less than 0.008 µM.

As for `O=C(Oc1ccccc1)N1CCc2c([nH]c3ccc(Cl)cc23)C1c1ccc(OCCCCl)cc1` (stereo not shown) [Compound 710], the EC50 is less than 0.008 µM.

As for `O=C(Oc1ccc(F)cc1)N1CCc2c([nH]c3ccc(Cl)cc23)C1c1ccc(OCCCCl)cc1` (stereo not shown) [Compound 712], the EC50 was less than 0.008 µM.

In the case of `O=C(Oc1ccccc1Cl)N1CCc2c([nH]c3ccc(Cl)cc23)C1c1ccc(OCCCCl)cc1` (stereo not shown) [Compound 713], the EC50 was in the range of 0.008 to 0.04 µM.

With `O=C(Oc1ccc(F)cc1)N1CCc2c([nH]c3ccc(Cl)cc23)C1c1ccc(OCCCCCl)cc1` (stereo not shown) [Compound 719], the EC50 is less than 0.008 µM.
